Measurements as given in patent US20090298890A1, “NEW N-METHYL BENZAMIDE DERIVATIVES” (BAYER CROPSCIENCE SA, priority 2006, published 2009).

Experiments:
Pyrenophora teres = assay: In vivo test on Pyrenophora teres (barley net blotch); details: barley plants (Express variety), preventive spray 24 hours before contamination, dose 330 ppm, grading 12 days after contamination vs control plants
Procedure: In Vivo Test on Pyrenophora Teres (Barley Net Blotch)
The active ingredients tested are prepared by homogenization in a mixture of acetone/tween/DMSO, then diluted with water to obtain the desired active material concentration.
Barley plants (Express variety), sown on a 50/50 peat soil-pozzolana substrate in starter cups and grown at 12° C., are treated at the 1-leaf stage (10 cm tall) by spraying with the active ingredient prepared as described above. Plants, used as controls, are treated with the mixture of acetone/tween/DMSO/water not containing the active material.
After 24 hours, the plants are contaminated by spraying them with an aqueous suspension of Pyrenophora teres spores (12,000 spores per ml). The spores are collected from a 12-day-old culture. The contaminated barley plants are incubated for 24 hours at about 20° C. and at 100% relative humidity, and then for 12 days at 80% relative humidity.
Grading is carried out 12 days after the contamination, in comparison with the control plants.

Alternaria alternata = assay: Cell test on Alternaria alternata; type: cell-based; details: under similar conditions (10 ppm, OD 620 nm after 5 days at 20° C.)
Procedure: Cell Test on Alternaria Alternata The growth of Alternaria alternata is performed on PDA medium at 20° C. under black light during 14 days. The PDA medium is prepared by mixing 39 grams of PDA (Merck) in 1 liter of demineralized water. The medium is sterilized by autoclave 15 minutes at 121° C. After 14 days of growth, the spores of Alternaria alternata are recovered in sterilized water and the concentration of spores adjusted to 10^6 spores per ml. The compounds is solubilized in DMSO and added to sterile liquid glucose/mycopeptone medium (14.6 g/l of D-glucose, 7.1 g/l of mycological peptone (Oxoid) and 1.4 g/l of yeast extract (Merck)) at a concentration of 10 ppm. The medium is inoculated with the spore suspension at a concentration of 10^5 spores per ml. The efficacy of the compounds is assessed by OD measurement at 620 nm after 5 days at 20° C. in comparison with a control.

Row | Compound | protection (Pyrenophora teres) | activity (Alternaria alternata)
1 | O=C(NCOc1ncc(C(F)(F)F)cc1Cl)c1ccccc1C(F)(F)F [Compound 1, N-({[3-chloro-5-(trifluoromethyl)pyridin-2-yl]oxy}methyl)-2-(trifluoromethyl)benzamide] | at least 60% | 
2 | O=C(NOCc1ncc(C(F)(F)F)cc1Cl)c1c(Cl)cccc1Cl [Compound 501] |  | did not show any activity
3 | O=C(NOCc1ncc(C(F)(F)F)cc1Cl)c1c(F)cccc1F [Compound 502, N-{[3-chloro-5-(trifluoromethyl)pyridin-2-yl]methoxy}-2,6-difluorobenzamide] |  | did not show any activity
